Results as given in patent publication US5053006A, “Method for the permanent occlusion of arteries” (priority 1990, dated 1991).
Several values for one entry are separate records, joined by “and”; a condition that tells them apart may be missing. Identical values can stand only once.

Columns and labels:
[1] = system: conjunctival epithelium on vascularized corneas; assay: Epithelial differentiation on photothrombosed corneas (goblet cells, cytology, histology); type: in vivo, New Zealand albino rabbit
Procedure: In order to study the goblet cell density on the vascularized corneas before and after photothrombosis, corneal flat-mounts were prepared and stained according to usual methods (Tseng et al., Invest. Opthalmol. Vis. Sci., 25:1168-76, 1984). The pattern of goblet cell disappearance was then analyzed and specifically correlated with the treated area.
The epithelial phenotype of the control and treated corneas was then studied by impression cytology (Tseng, Ophthalmology, 92:728-33, 1985) and routine histology using hematoxylin and PAS. In addition, immunofluorescent stainings of the frozen sections using a previously developed anti-rabbit ocular mucin monoclonal antibody [anti-ROM] was performed to study mucin expression.

[2] = system: corneal cholesterol; assay: Corneal cholesterol content after photothrombosis (Example 6); type: in vivo, New Zealand white rabbit; settings: for Corneal Cholesterol Concentration, Difference Between Treated and Untreated Eyes / Corneal Cholesterol Concentration, Difference Between Treated and Untreated Eyes, %: individual rabbit
Excerpt: Nine New Zealand white strain rabbits weighting 1 to 2 kg were rendered hypercholesterolemic by foods that contained high levels of cholesterol, as described in Stock et. al., Arch. Ophthalmol., 103:726-730, 1985; and Mendelsohn et al., Ophthalmic Surg., 17:502-508, 1986. Eight days after commencement of the high-cholesterol diet, corneal sutures were implanted in both eyes according to the surgical procedure described in Mendelsohn et al., Ophthalmic Surg., 17:502-508, 1986.
On day 22, slit-lamp photographs and fluorescein angiograms were obtained of all corneas (Mendelsohn et al., Arch. Ophthalmol., 105:983-988, 1987, the disclosure of which is hereby incorporated by reference and relied upon). On the next day, one eye of each rabbit underwent laser surgery, with the other eye serving as a comparative control. Rose bengal dye was dissolved at a concentration of 30 mg/ml in 0.9% saline solution. For the initial injection, the dye solution was administered at a total body concentration of 45 mg/kg. For the two animals in which the procedure took longer than 25 minutes, a booster injection of 15 mg/kg was administered. Irradiations of corneal vessels were carried out with an argon ion laser (Model 95, Cooper Laser-Sonica, Sunnyvale, Calif.) operated in the TEM00 mode at 514.5 nm. The beam was directed toward an aluminized mechanical shutter (AW Vincent Associates, Rochester, NY), which reflected it at a right angle through a 514.5-nm custom interference filter with a transmittance of 92% (Omega Optical, Brattleboro, VT) and then through a fused silica lens with a focal length of 7.5 cm for focusing into a 2.5-m fiberoptic cable 400 μm in diameter. In the optical fiber, the gaussian input beam profile was converted into an output beam. The output was collimated by a plano convex lens 3.5 cm in focal length and focused with a plano convex lens with a focal length of 1.0 cm. The lenses were mounted in a beam telescope attached to an X-Y positioning device (Daedal Inc., Harrison City, Pa.). The beam diameter was measured with a calibrated reticle in the ocular of a ×20 operating microscope. By observing, through a 514.5-nm rejection filter, the fluorescence of a white card impregnated with rhodamine B, the minimum diameter of the organe fluorescent spot at the focal point was determined to be 63 μm. Combining the transmission efficiencies of the three uncoated lenses (92% per lens, 76% total transmission) with those of the optical fiber and interference filter yielded a system transmission efficiency of 61.5%. This reduced the incident power level of the laser from 215 mW to an effective power level of 132 mW; this corresponded to an incident intensity at the focal point of 4.23 kW/cm^2 . During shutter closure, irradiations were carried out in 0.2-s intervals. When the shutter was opened, the low-power beam, which was reflected off an optical flat and through the optical system, was used for aligning the next vessel selected for irradiation.
One eye of each rabbit was subjected to laser applications that were directed toward the vascular branching points of the limbal and corneal feeder vessels adjacent to the sites of lipid deposits. […] Initially, the irradiated segment appeared yellow-orange because the fluorescence of rose bengal had been absorbed into erythrocyte plasma membranes and plasma proteins. As platelets accumulated, the fluorescence became yellowish and less intense. […]

[3] = system: arteries
Excerpt: The method utilizes an intravascular photochemical reaction to induce structural damage to normally non-thrombogenic vascular endothelium. The photochemical process is mediated by rose bengal, a potent photosensitizing dye injected into the bloodstream. Absorption by the injected rose bengal dye of light at a wavelength sufficient to electronically excite the rose bengal molecules induces photochemical injury via singlet oxygen peroxidation reactions in the vascular endothelium at the point of interaction of the rose bengal and the light beam, which is preferably a laser light beam.
A tunable argon ion laser (a Lexel Model 95 argon ion laser, manufactured by Cooper LaserSonics, Santa Clara, Calif.), operated at 514.5 nm, was used for the irradiation. The argon ion laser was focused according to a derived criterion (described below) to facilitate maximally efficient intraluminal growth of the occlusive thrombus. The middle cerebral artery was irradiated with 7.5 mW delivered either continuously or via a beam-chopper operated at 200 Hz (with 75 mW peak power, 10% duty cycle). The carotid and femoral arteries were each irradiated with a chopped beam at 1 W average power (2 W peak power chopped at 200 Hz and 50% duty cycle). […] The middle cerebral artery (diameter approximately 200 μm) was irradiated through a spherical lens of 39-cm focal length at a distance of 40 cm from the artery; with correction for optical reflection losses, the incident intensity was 16 W/sq cm. The femoral artery (diameter 670 μm) and common carotid artery (diameter 800 μm) were irradiated through a spherical lens of 61-cm focal length at distances of 42 and 26 cm from the artery, respectively. In each case, the average incident intensity, with correction for irradiation geometry, was approximately 160 W/sq cm.
A stock solution of rose bengal dye, 30 mg/ml in 0.9% saline, was made up for intravenous injection (via the tail vein) at a dose of 40 mg/kg. Before dye injection, the contralateral (control) arteries were irradiated for 15 minutes at the stated intensities. Following this, simultaneous intravenous infusion of the rose bengal solution (at 20 mg/kg/min over 2 minutes) and irradiation of the ipsilateral artery was begun. Five rats were used for common carotid artery irradiation and four for femoral artery irradiation. In the latter case, two rats received only 20 mg/kg. Middle cerebral artery irradiation was performed in a large series of approximately 70 animals.

[4] = rabbit, in vivo; cited from earlier work
[5] = common carotid and femoral arteries

## O=C([O-])c1c(Cl)c(Cl)c(Cl)c(Cl)c1-c1c2cc(I)c(=O)c(I)c-2oc2c(I)c([O-])c(I)cc12.[Na+].[Na+] [rose bengal]
[1]; four weeks
  goblet cells on the cornea: no goblet cells were noted
  histology of epithelium: stratified cornea-like epithelium
[1]; one week
  goblet cell density, cytology: decreased goblet cell density
[1]; one week, impression cytology
  epithelial N/C ratio: slight increase
[1]; treated areas, four days
  goblet cell density: remarkably decreased
[2]; 45 mg/kg
  Corneal Cholesterol Concentration, Difference Between Treated and Untreated Eyes: 0.144 g of Cholesterol/100 g of Corn and 0.007 g of Cholesterol/100 g of Corn and 0.076 g of Cholesterol/100 g of Corn and 0.149 g of Cholesterol/100 g of Corn and 0.105 g of Cholesterol/100 g of Corn and 0.129 g of Cholesterol/100 g of Corn and 0.058 g of Cholesterol/100 g of Corn
  Corneal Cholesterol Concentration, Difference Between Treated and Untreated Eyes, %: -36.5% and -2.5% and -24.3% and -41.7% and -29.1% and -42.0% and -21.9%
[2]; 60 mg/kg (45 plus booster 15)
  Corneal Cholesterol Concentration, Difference Between Treated and Untreated Eyes: 0.219 g of Cholesterol/100 g of Corn and 0.206 g of Cholesterol/100 g of Corn
  Corneal Cholesterol Concentration, Difference Between Treated and Untreated Eyes, %: -58.6% and -51.8%
[2]; laser-treated vs control eyes
  average reduction of corneal cholesterol content: 36%
[3]; 35 kJ/sq cm large arteries, 3.5 kJ/sq cm small arteries
  time to occlusion: ≤ 3 min
[3]; [5]
  distal extension of mixture of red blood cells and coagulum: at least 10 arterial diameters
  thrombus composition: thrombus of mixed character
[3]; irradiated arteries of rats injected with rose bengal solution
  photochemically induced thrombotic occlusion: always observed
[4]
  half-life in blood: three
